The text below walks through data of patent US20240228987A1, “HEXOKINASE-DERIVED PEPTIDES AND THERAPEUTICAL USES THEREOF” (INSERM (INSTITUT NATIONAL DE LA SANTÉ ET DE LA RECHERCHE …, priority 2021, published 2024).

By IC50 is commonly meant the concentration needed to halve the response being measured.

Where a SMILES comes first, the peptide text is derived from it. [ ]: non-standard residue; d: D form. Nle = CCCC[C@H](N)C(=O)O

Data set [1] addresses T1, VDAC (Homo sapiens, UniProt P21796).
T1 construct: HEK-293 cells, expressing VDAC and HK; endogenous in cells; host or cells: HEK-293 (ATCC), transfected only with the Ca2+ probes mitoGCaMP2 / GCaMP2
The data set can be described thus: live imaging of HEK-293 cells transfected with mitoGCaMP2 or GCaMP2, MJ treatment. The class given is cell-based. The settings on record: peptide at 33 μM, MJ 6 mM, 30 min. How it is done:
(§1) FIG. 5. Time-lapse quantification of mitoGCaMP2 (A) and GCaMP2 (B) fluorescence levels within mitochondria and within the cytosol respectively. Quantifications of fluorescence levels of HEK-293 cells transfected with mitoGCaMP2 (A) and GCaMP2 (B) probes. Control (circle) represents the fluorescence level in mitochondria when treating the cells with the diluents 0.1 DMSO and 5% EtOH used for MJ and compound solubilization. MJ was tested at 6 mM and compound 1a at 33 μM. Statistical analysis using two-way ANOVA followed by Tukeys's multiple comparison tests (N=3 independent experiments). Results are expressed as means±SEM. **p<0.01, ****p<0.0001, ns. non significant. A. U. arbitrary unit
(§2) Live imaging experiments were performed on HEK-293 cells transfected with either the mitoGCaMP2 or the GCaMP2 plasmids. 500,000 cells per well were seeded in 6-well microplate (NUNC, reference 153066, Thermo Fisher Scientific, France) in 1 ml of DMEM supplemented with 10% FBS and 1% PS. 48 h after seeding, cells were transfected with 2 μg of mitoGCaMP2 or GCaMP2 plasmids using jet-PRIME reagent according to the manufacturer's protocol. 48h after transfection, the microplates were placed under a videomicroscope equipped with a humidified chamber at 37° C. and with 5% CO2. Next, 6 mM of pre-heated MJ (37° C.) was added to the wells with or without the peptide 1a at 33 μM in 1 ml of DMEM without red phenol supplemented with 10% FBS and 1% PS, and containing 0.1% DMSO and 5% EtOH. In parallel, wells containing only 1 ml of DMEM without red phenol and with 10% FBS, 1% PS, 0.1% DMSO and 5% EtOH served as control condition. Live imaging acquisition was triggered when adding MJ with or without the peptide 1a. For the control condition, image acquisition was triggered after addition of 1 ml of DMEM without red phenol supplemented with 10% FBS and 1% PS, containing 0.1% DMSO and 5% EtOH. […] Overall, 5 ROIs per condition were analyzed using Zen software (Zen 2.3 lite, Zeiss, France) and ImageJ software (version 1.52o, NIH, USA). Results are expressed as the mean±SEM using GraphPad Prism software (version 8.0.1). […]

In data set [2] the target is T1, VDAC. The data set can be described thus: in-cellulo screening assay: HEK-293 cells transfected with mitoGCaMP2, MJ-induced mitochondrial Ca2+ release through VDAC. The class given is cell-based.
Method: The activity of the designed compounds was assessed on HEK-293 cells transfected with mitoGCaMP2. 40,000 cells per well were seeded in 96-well-microplates coated with Poly-D-Lysine (reference 655946, Greiner Bio-One, France) in 200 μl of DMEM supplemented with 10% FBS and 1% PS. 24 h after seeding, cells were transfected with 50 ng of mitoGCaMP2 plasmid per well using jet-PRIME reagent (Polyplus-transfection S.A, France) according to the manufacturer's recommendations. 48 h after transfection, a first measure of fluorescence was performed using the microplate reader CLARIOstar® (BMG Labtech, France). This measurement represented the basal level of Ca2+ into the mitochondria upon transfection. After a wash with 100 μl of PBS, cells were incubated with a mixture of pre-heated (37° C.) MJ at a final concentration of 6 mM and compounds at the indicated final concentrations in PBS containing 0.1% DMSO and 5% EtOH. After 35 min in a cell incubator, a second measure of fluorescence was performed using the microplate reader CLARIOstar®. This measure represented the level of mitochondrial Ca2+ according to the peptide activity. Compounds were tested in triplicates per microplates and in three or five independent experiments for each peptide. For dose effect curves, compounds were tested in triplicates per microplates and in three independent experiments. Results are expressed as the ratio between the second and first measures and normalized to the conditions without compounds containing only PBS with 0.1% DMSO and 5% EtOH. Results are expressed as the means±SD in histogram plots and dose response curves using GraphPad Prism software (version 8.0.1).
The biological screening of the peptide is based on the ability of methyl jasmonate (MJ) to binds and detaches HK-1 from mitochondrial VDAC in a time and dose dependent manner.^16,20 For this purpose, we developed an in-cellulo screening assay in which HEK-293 cells, expressing VDAC and HK,25 were transfected with GCaMP2, a cytoplasmic Ca2+-sensing probe, or with mitoGCaMP2, the same probe addressed to mitochondrial matrix. […] MJ that removes HK from VDAC was used to induce a Ca2+ release outside mitochondria measured through a drop in mitoGCaMP2 fluorescence and an increase in GCaMP2 fluorescence in cells.
In data set [3] the test system is VDAC. The data set can be described thus: live imaging of HEK-293 cells transfected with mitoGCaMP2 or GCaMP2, MJ treatment. The class given is cell-based. The conditions noted are these: MJ 6 mM. Here is the method:
as §1, §2

Another data set relates to Schwann cells. The conditions noted are these: cited from earlier work.
The next data set has as its system HEK293 cells. The data set can be described thus: Rhod-2 mitochondrial calcium imaging in HEK293 cells, methyl jasmonate (Example 2). The class given is cell-based. The settings on record: methyl jasmonate 6 mM, 40 minutes; 5z peptide 5 μM or AAV9 infection. How it is done:
FIG. 12: AAV9 represents an efficient way to sustain anti-demyelinating peptide expression in target cells. HEK293 cells were infected with a control AAV9 or AAV9-HK peptide or not infected. Two days later cells were incubated with a fluorescent dye Rhod-2 that fluoresces with calcium in mitochondria. 15 minutes later infected cells were incubated with methyl jasmonate (6 mM) and non-infected cells were incubated with methyl jasmonate (6 mM)+5z peptide (5 μM) for 40 minutes. Pictures were taken every 5 minutes imaging Rhod-2 dye.
We produced an AAV9 virus expressing HK peptide 5z (AAV9-HK peptide). HEK293 cells were infected with a control AAV9 or AAV9-HK peptide or not infected. Two days later cells were incubated with a fluorescent dye Rhod-2 that fluoresces with calcium in mitochondria. 15 minutes later infected cells were incubated with methyl jasmonate (6 mM) and non-infected cells were incubated with methyl jasmonate (6 mM)+5z peptide (5 μM) for 40 minutes. Pictures were taken every 5 minutes imaging Rhod-2 dye.

In data set [4] the target is T1, VDAC. The data set can be described thus: time-lapse recording of mitochondrial calcium probe mito-GCaMP2 in HEK293 cells treated with MJ and HK1 N-terminal peptides (FIG. 3). Format: cell-based. The settings on record: peptides at 5 microMolar, MJ 6 mM. Here is the method:
FIG. 3: Time-lapse recording of fluorescence intensity of the mitochondrial calcium probe in HEK293 cells treated with Methyl Jasmonate (MJ, 6 milliMolar) and Nterminal peptide of wt HK1 (HK1-Nt peptide) or Nterminal peptide of mutated HK1 (HKmut-Nt peptide). HEK 293 cells were transfected with a plasmid expressing mito-GCaMP2. 48 hours later cells were imaged using a Zeiss Axio-observer designed for live-imaging and treated with MJ (6 mM) and/or peptides at 5 microMolar. Peptide sequences: wt HK1 peptide Ac-[…]-NH2 (SEQ ID NO:90), CMT4G-mutated HK1 peptide Ac-[…]-NH2 (SEQ ID NO:91) and Control peptide Ac-[…]-NH2 (SEQ ID NO:92).

For data set [5] the following is noted: cited from earlier work.

T1 sequence (P21796 2-283): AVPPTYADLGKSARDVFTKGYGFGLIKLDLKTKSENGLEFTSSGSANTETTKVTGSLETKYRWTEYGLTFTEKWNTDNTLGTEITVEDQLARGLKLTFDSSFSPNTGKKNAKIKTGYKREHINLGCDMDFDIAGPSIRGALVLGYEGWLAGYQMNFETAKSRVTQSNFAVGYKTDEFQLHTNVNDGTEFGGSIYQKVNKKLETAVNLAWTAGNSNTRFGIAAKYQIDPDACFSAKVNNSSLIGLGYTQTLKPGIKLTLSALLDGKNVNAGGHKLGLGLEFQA

For `CCCC[C@H](NC(C)=O)C(=O)N[C@H](C(=O)N[C@@H](C)C(=O)N[C@@H](C)C(=O)N[C@@H](CCC(N)=O)C(=O)N[C@@H](CC(C)C)C(=O)N[C@@H](CC(C)C)C(=O)N[C@@H](C)C(=O)N[C@@H](Cc1ccc(O)cc1)C(=O)N[C@@H](Cc1ccc(O)cc1)C(=O)N[C@@H](Cc1ccccc1)C(=O)N[C@H](C(=O)N[C@@H](CCC(=O)O)C(=O)N[C@@H](CC(C)C)C(=O)N[C@@H](CCCCN)C(=O)NCC(=O)N[C@@H](CCCNC(=N)N)C(=O)N[C@@H](CCCCN)C(=O)N[C@@H](CCCCN)C(=O)N[C@@H](CCCNC(=N)N)C(=O)N[C@@H](CCCNC(=N)N)C(=O)N[C@@H](CCC(N)=O)C(=O)N[C@@H](CCCNC(=N)N)C(=O)N[C@@H](CCCNC(=N)N)C(=O)N[C@@H](CCCNC(=N)N)C(=O)N1CCC[C@H]1C(=O)N1CCC[C@H]1C(=O)N[C@@H](CCC(N)=O)C(N)=O)[C@@H](C)O)[C@@H](C)CC` [1a] (Ac-[Nle]IAAQLLAYYFTELKGRKKRRQRRRPPQ-NH2), the “fluorescence change induced by MJ treatment (mitoGCaMP2 and GCaMP2)” value at VDAC [1] was “blocked”. Moreover, the IC50 at VDAC [2] (HEK-293 mitoGCaMP2, MJ 6 mM, 35 min, dose response, read-out: IC50 on mitochondrial Ca2+ release through VDAC) was 15.6 ± 2 µM.
Take `CC/C=C\CC1C(=O)CCC1CC(=O)OC` (centres unmarked) [MJ, Methyl jasmonate]: the “mitoGCaMP2 fluorescence (mitochondrial Ca2+)” value with VDAC [3] (at least 30 min) is given as “significant decrease”. For the same molecule, the “GCaMP2 fluorescence (cytoplasmic Ca2+)” value in the data set on VDAC [3] (same timeframe) is reported as “increased significantly”. Further, the demyelination result in the data set with Schwann cells is recorded as “spontaneous demyelination”. The “Rhod-2 fluorescence in mitochondria” value in the data set with HEK293 cells is listed as “decrease”.
On to “AQWWAYYYTEWK [5z, tested peptide also contains Tat]”, for which the “Rhod-2 fluorescence in mitochondria” value in the data set with HEK293 cells was “no decrease occurred”. Further, the “activity / affinity for VDAC on the screening assay (mitoGCaMP2 fluorescence)” value in the data set with VDAC [2] (compounds at 3 μM, MJ 6 mM, compared with 3c, 4d or 5x) is “more significant”.
For the molecule “Ac-MGQICQRESATAAEKGRKKRRQRRRPPQ-NH2 [peptide derived from the mutant HK1]”, the “mitochondrial calcium release following MJ treatment” value with VDAC [4] is listed as “no effect”.
On to Ac-MIAAQLLAYYFTELKGRKKRRQRRRPPQ-NH2, for which the “mitochondrial calcium release following MJ treatment” value with VDAC [4] is on record as “able to prevent mitochondrial calcium release”.
In the case of GRKKRRQRRRPQ [Tat], the half-life in serum result in data set [5] is reported as “less than 6 min”.
